Columns and labels:
[1] = test system: P. aeruginosa (ATCC 27853); assay: Protocol 3 time-dependent antimicrobial activity at one dose level; type: cell-based, Pseudomonas aeruginosa; details: for Bacterial growth, Buffer and L-indolicidin 50 μg/ml: 100 mM sodium phosphate buffer
Protocol: The objective of this protocol is to establish a procedure for determining the antimicrobial activity of indolicidin (e.g., L-IND) at 50 μg/ml over an extended exposure time up to 24 hours at room temperature. It is believed that this procedure more closely mimics the recommended use of lens-care products.
Exposure of the test organism to indolicidin occurs in a buffered solution for up to 24 hours with sampling for viability at different time intervals. Polypropylene 96-well microtiter plates and microcentrifuge tubes are used for exposure and dilution of indolicidin, respectively.
The following materials are used: sterile glass tubes containing 5 ml of Mueller-Hinton Broth (MHB), Mueller-Hinton agar plates, sterile 96-well polypropylene microtiter plates, and sterile polypropylene microcentrifuge tubes.
One or more of the following microorganisms are used in assays using this protocol or modification of this protocol: Pseudomonas aeruginosa (ATCC 9027), Pseudomonas aeruginosa (ATCC 27853), and S. aureus (ATCC 6538).
Five 5 ml of MHB tubes are innoculated with the tester strain(s) from MHA plates and grown overnight at 37° C. on a shaker (180 rpm). A micropipet tip is prewet for at least 2 minutes with 100 μl of the stock solution of indolicidin (e.g., L-IND). The test article is dispensed back in the stock solution vial and the pipette is reset to a volume of 10 μl. Polypropylene microcentrifuge tubes are used to dilute the stock of indolicidin (10 mg/ml) 10-fold in sterile water. To obtain a 10× solution of indolicidin with a dose level equivalent to 50 μg/ml dose level dilute 10 μl of the stock solution of indolicidin in 90 μl of sterile water. (The concentration of indolicidin in the final exposure volume of 100 μl will be 5 μg when 10 μl of the 10× solution is added to 100 μl of bacterial suspension). […]
Survival is determined by counting the colonies appearing on plates after overnight incubation at 37° C. The results are expressed as CFU/ml and survival is expressed as the percent of the bacteria that survived the treatment. […]

[2] = test system: Staphylococcus aureus 502A; assay: Dose response of antimicrobial activity in 10 mM sodium phosphate buffer; type: cell-based; details: 10 μg/mL indolicidin, 2 hours, 10 mM sodium phosphate buffer pH 7.4, 37° C., 2×10^6 CFU
Protocol: The time course and dose-dependence of the antimicrobial activity of an antimicrobial peptide can be determined by incubating a microorganism with the antimicrobial peptide and determining the viability after various times of incubation or after treatment with various concentrations of the antimicrobial peptide.
Exemplary assays using indolicidin and indolicidin analogs were performed in 10 mM sodium phosphate buffer, pH 7.4, at 37° C., as described by Selsted et al. (1985) Infect. Immun. 45:150-154, which is incorporated herein by reference.
The dose response of a gram negative bacterial strain, Escherichia coli ML35, and a gram positive bacterial strain, Staphylococcus aureus 502A, to indolicidin was determined by incubating 2×10^6 colony forming units (CFU) of log phase bacteria with 0-25 μg/mL of indolicidin for two hours. Following incubation, the cultures were serially diluted and plated on nutrient agar. Viability of both gram negative and gram positive bacteria was reduced by at least four orders of magnitude in incubations containing 10 μg/mL of indolicidin. E. coli was more susceptible than S. aureus, as >95% of the input cells were killed after 2 hr incubation with 2.5 μg/mL indolicidin. The indolicidin diluent, 0.01% acetic acid, had no effect on either bacterial strain.

Q: Which survival ([1]; 50 μg/ml, 100 mM sodium phosphate buffer pH 7.4, all time points 0-24 hours) does the source give for `CC[C@H](C)[C@H](N)C(=O)N[C@@H](CC(C)C)C(=O)N1CCC[C@H]1C(=O)N[C@@H](Cc1c[nH]c2ccccc12)C(=O)N[C@@H](CCCCN)C(=O)N[C@@H](Cc1c[nH]c2ccccc12)C(=O)N1CCC[C@H]1C(=O)N[C@@H](Cc1c[nH]c2ccccc12)C(=O)N[C@@H](Cc1c[nH]c2ccccc12)C(=O)N1CCC[C@H]1C(=O)N[C@@H](Cc1c[nH]c2ccccc12)C(=O)N[C@@H](CCCNC(=N)N)C(=O)N[C@@H](CCCNC(=N)N)C(N)=O` [L-indolicidin, H2N-ILPWKWPWWPWRR-CONH2] here?
A: The survival was “no survival”.

Q: What about the “Bacterial growth, Buffer and L-indolicidin 50 μg/ml” value ([1]; incubation time 0 hr) of the same compound?
A: The value was 0.

Q: What about the “Bacterial growth, Buffer and L-indolicidin 50 μg/ml” value ([1]; incubation time 24 hr) of the same compound?
A: The value was 0.

Q: What about the Viability reduction [2] of the same compound?
A: Its Viability reduction is “at least four”.

From US6482799B1, “Self-preserving multipurpose ophthalmic solutions incorporating a polypeptide antimicrobial” (The Regents of the University of California, priority 1999, dated 2002)
